The record followed here is US7282519B2 (priority 2003, dated 2007).

The subject of data set [1] is Normal Rat. Put plainly: Measurement of urine excretion using a nitrosated diuretic compound, intravenous. The format is in vivo, Male Wistar rats. Conditions: for Total Urine Volume (ml) at: 0.5 h / Total Urine Volume (ml) at: 1 h / Total Urine Volume (ml) at: 2 h: normal rat, intravenous slow bolus, 3 mg/kg (Example 12: 3 mg/kg equivalent), n = 6.
Data set [2] deals with Normal Rat. In kind it is in vivo, Male Wistar rats. Conditions: intravenous slow bolus, 1 mg/kg (each compound), n = 3.

Read-outs that look alike come from different tables or passages of the source.

Consider `NS(=O)(=O)c1cc(C(=O)OCC(=O)NC[C@H](CO[N+](=O)[O-])O[N+](=O)[O-])c(NCc2ccco2)cc1Cl` [Example 12, (N-((2R)-2,3-Bis(nitrooxy)propyl)carbamoyl)methyl4-chloro-2-((2-furylmethyl)amino)-5-sulfamoylbenzoate], for which the melting point is 143 to 153 °C (dec.). Also, in the data set on Normal Rat [1], the “Total Urine Volume (ml) at: 0.5 h” value stood at 4.2 ± 0.4 mL, the “Total Urine Volume (ml) at: 1 h” value is 5.3 ± 0.5 mL and the “Total Urine Volume (ml) at: 2 h” value is 6.2 ± 0.5 mL. For the same compound, the “Diuresis in the rat” value in the data set on Normal Rat [1] (rat, intravenous, 3 mg/kg equivalent) was “elicits diuresis”.

For `CN(CCO[N+](=O)[O-])C(=O)COC(=O)c1cc(S(N)(=O)=O)c(Cl)cc1NCc1ccco1`, the melting point lay in the range of 70 to 72 °C.

For `CCN(CCO[N+](=O)[O-])C(=O)COC(=O)c1cc(S(N)(=O)=O)c(Cl)cc1NCc1ccco1`, the melting point lay within 60 to 62 °C.

The compound `NS(=O)(=O)c1cc(C(=O)OCC(=O)N2CCC[C@@H]2CO[N+](=O)[O-])c(NCc2ccco2)cc1Cl` showed a melting point of 64 to 66 °C.

Take `NS(=O)(=O)c1cc(C(=O)NCCOC(=O)[C@@H]2CCCN2[15N]=O)c(NCc2ccco2)cc1Cl`: the melting point fell in the range of 51 to 61 °C.

For the compound `NS(=O)(=O)c1cc(C(=O)OCC(=O)N[C@@H](CCO[N+](=O)[O-])CO[N+](=O)[O-])c(NCc2ccco2)cc1Cl`, the melting point was in the range of 115 to 118 °C.

For the compound `NS(=O)(=O)c1cc(C(=O)O)c(NCc2ccco2)cc1Cl` [Furosemide, furosemide, reference compound], the “Total Urine Volume (ml) at: 1 h” value with Normal Rat [2] (1 h, mean ± spread) is 3.3 ± 1.7 mL. The “Total Urine Volume (ml) at: 2 h” value in the data set with Normal Rat [2] (2 h) was 3.3 ± 1.7 mL. Also, in the data set with Normal Rat [2] (3 h), the “Total Urine Volume (ml) at: 3 h” value was determined as 5.0 ± 0.6 mL. Besides, in the data set on Normal Rat [1], the “Total Urine Volume (ml) at: 0.5 h” value came to 6.7 ± 1.2 mL, the “Total Urine Volume (ml) at: 1 h” value came out at 8.8 ± 1.2 mL and the “Total Urine Volume (ml) at: 2 h” value worked out at 11.0 ± 1.3 mL.

Regarding `NS(=O)(=O)c1cc(C(=O)OCC(=O)N2CCC(CCO[N+](=O)[O-])CC2)c(NCc2ccco2)cc1Cl`, the melting point amounted to 170 °C.

With `C[C@@H](CNC(=O)COC(=O)c1cc(S(N)(=O)=O)c(Cl)cc1NCc1ccco1)O[N+](=O)[O-]`, the melting point is 125 to 138 °C (dec.).

The compound `NS(=O)(=O)c1cc(C(=O)OCC(=O)NCCO[N+](=O)[O-])c(NCc2ccco2)cc1Cl` yielded a melting point of 135 °C.

As for `NS(=O)(=O)c1cc(C(=O)OCC(=O)N2CCC(CO[N+](=O)[O-])CC2)c(NCc2ccco2)cc1Cl`, the melting point was 115 to 117 °C.

In turn, `NS(=O)(=O)c1cc(C(=O)OC[C@H]2CCCN2N=O)c(NCc2ccco2)cc1Cl` came in with a melting point of 79 to 81 °C.
